Laboratory results as given in patent EP0351214A1, “Anti-inflammatory aryl derivatives” (THE WELLCOME FOUNDATION LIMITED, priority 1988, dated 1990).

Tests used:
[1] = biological target: T1, cyclo-oxygenase (CO) (Homo sapiens, UniProt P23219); test: In vitro inhibition of cyclo-oxygenase (CO) in homogenised leukocytes, radioimmunoassay for thromboxane B2; format: biochemical; conditions: homogenised leukocytes from blood of normal aspirin-free volunteers; 5µM arachidonic acid, 37°C, 5 minutes; thromboxane B₂ by radioimmunoassay; read-out: IC₅₀(µM) activity CO
T1 construct: The leukocytes were homogenised and 5µM arachidonic acid added; from tissue; host or cells: homogenised leukocytes from blood of volunteers
Method: (§1) In vitro inhibition of 5-lipoxygenase (5-LO) and cyclo-oxygenase (CO)
(§2) Blood from normal aspirin-free volunteers was centrifuged to separate leukocytes from red cells and platelets. The leukocytes were homogenised and 5µM arachidonic acid added, followed by incubation at 37 °C for 5 minutes. The reaction was stopped by boiling and radioimmunoassays conducted for leucotriene B₄ and thromboxane B₂, products derived from 5-lipoxygenase and cyclo-oxygenase respectively. Results were calculated as IC₅₀(µM) activity against each enzyme.

[2] = biological target: T2, 5-lipoxygenase (5-LO) (Homo sapiens, UniProt P09917); test: In vitro inhibition of 5-lipoxygenase (5-LO) in homogenised leukocytes, radioimmunoassay for leucotriene B4; format: biochemical; conditions: homogenised leukocytes from blood of normal aspirin-free volunteers; 5µM arachidonic acid, 37°C, 5 minutes; leucotriene B₄ by radioimmunoassay; read-out: IC₅₀(µM) activity LO
T2 construct: The leukocytes were homogenised and 5µM arachidonic acid added; from tissue; host or cells: homogenised leukocytes from blood of volunteers
T2 sequence (P09917 1-674): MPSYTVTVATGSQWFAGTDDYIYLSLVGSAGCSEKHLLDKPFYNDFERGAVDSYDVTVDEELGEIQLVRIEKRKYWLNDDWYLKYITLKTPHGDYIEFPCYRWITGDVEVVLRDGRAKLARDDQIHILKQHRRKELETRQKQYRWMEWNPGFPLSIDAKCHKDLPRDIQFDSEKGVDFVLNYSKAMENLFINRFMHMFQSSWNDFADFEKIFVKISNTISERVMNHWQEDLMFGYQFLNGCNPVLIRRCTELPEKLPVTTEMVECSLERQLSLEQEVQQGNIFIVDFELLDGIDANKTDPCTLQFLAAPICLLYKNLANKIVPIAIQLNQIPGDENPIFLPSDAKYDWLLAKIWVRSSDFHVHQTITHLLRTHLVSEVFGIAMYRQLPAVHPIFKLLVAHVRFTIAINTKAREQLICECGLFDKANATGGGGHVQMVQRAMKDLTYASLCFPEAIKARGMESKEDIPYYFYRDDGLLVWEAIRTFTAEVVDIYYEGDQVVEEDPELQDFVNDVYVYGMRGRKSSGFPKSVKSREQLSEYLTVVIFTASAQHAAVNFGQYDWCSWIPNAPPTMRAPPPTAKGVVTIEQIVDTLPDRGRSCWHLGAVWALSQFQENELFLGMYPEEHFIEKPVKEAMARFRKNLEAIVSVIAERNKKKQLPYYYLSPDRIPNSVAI
Method: as §1, §2

T1 sequence (P23219 24-599): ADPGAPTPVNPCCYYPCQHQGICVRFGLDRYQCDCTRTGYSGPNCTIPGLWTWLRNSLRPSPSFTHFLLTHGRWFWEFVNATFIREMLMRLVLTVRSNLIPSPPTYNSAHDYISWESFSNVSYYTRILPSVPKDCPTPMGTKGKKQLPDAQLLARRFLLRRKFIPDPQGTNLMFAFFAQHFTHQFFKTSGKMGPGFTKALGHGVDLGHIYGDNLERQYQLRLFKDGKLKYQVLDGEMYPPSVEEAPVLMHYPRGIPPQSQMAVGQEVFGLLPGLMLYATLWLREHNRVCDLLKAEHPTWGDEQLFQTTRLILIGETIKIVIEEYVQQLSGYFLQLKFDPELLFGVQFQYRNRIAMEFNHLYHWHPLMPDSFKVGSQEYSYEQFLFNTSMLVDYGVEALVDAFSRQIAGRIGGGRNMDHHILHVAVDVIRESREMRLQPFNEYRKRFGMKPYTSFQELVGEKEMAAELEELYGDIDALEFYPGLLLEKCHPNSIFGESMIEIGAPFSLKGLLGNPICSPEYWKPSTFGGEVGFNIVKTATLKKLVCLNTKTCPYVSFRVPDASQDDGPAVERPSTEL

IC50 [1]: 3 µM
IC50 [2]: 0.15 µM
SMILES: CC(=O)N(O)[C@@H](C)/C=C/c1cccc(Oc2ccc(F)cc2)c1 [Synthetic Example, (E)-N-{1(S)-methyl-3-[3-(4-fluorophenoxy)phenyl]prop-2-en-1-yl}acetohydroxamic acid]
